Here are results for three molecules from patent publication US10813913B2, “Small molecules that mimic or antagonize actions of granulocyte colony-stimulating-factor (G-CSF)” (UNIVERSITY OF SOUTH FLORIDA, priority 2016, dated 2020).

Several values for one entry are separate records, joined by “and”; a condition that tells them apart may be missing. Identical values can stand only once. Entries after “also recorded” stand apart in the source; their conditions may differ.

The test system of experiment [1] is PKCδVIII and Bcl2 expressed in THP-1 monocytic cells. The experiment is described as follows: Western blot of PKCδVIII and Bcl2 in THP-1 monocytic cells. It counts as cell-based, human. The note with it: for effect on G-CSF-induced Bcl2 expression / effect on G-CSF-induced PKCδVIII expression: THP-1, co-incubation with G-CSF 100 ng/mL; for effect on G-CSF-induced Bcl2 expression / effect on G-CSF-induced PKCδVIII expression / Bcl2 protein expression / PKCδVIII protein expression: 24 h; for Bcl2 protein expression / PKCδVIII protein expression: THP-1, compound alone, three concentrations; for agonist/antagonist profile at the G-CSF receptor: monocytic cell line (THP-1). Here is the method:
(§1) In addition, a set of flasks were co-incubated with the combination of G-CSF and 3 concentrations of test drug. Whole cell lysates ([…]) were separated on 10% polyacrylamide gel electrophoresis-SDS (PAGE-SDS). Proteins were electrophoretically transferred to nitrocellulose membranes, blocked with 5% nonfat milk prepared on Tris buffered saline containing 0.1% Tween 20, washed and incubated with a polyclonal antibody against either Bcl2 (Cell Signaling, Danvers, Mass.) or PKCδVIII-specific polyclonal antibody (Jiang, K., et al. Biochemistry 2008, 47, 787-797). The house keeping gene GAPDH was used as an internal standard. Following incubation with anti-rabbit IgG-HRP, enhanced chemiluminesence (Pierce™, Thermo Scientific, Walthahm, Mass.) was used for detection and the gels were analyzed using UN-SCAN-IT™ software (Silk Scientific, Inc., Orem, Utah).
(§2) Statistical analysis. Densitometric results from Western blots were analyzed with two-tailed t-tests when only two groups were compared. In other analyses where 3 groups were compared, one-way ANOVA followed by t-tests with Dunnett's corrections for multiple comparisons was utilized. All data was presented as mean±SEM. All statistical analysis of data was done via PRISM4 or PRISM5 statistical analysis software (GraphPad Prism, La Jolla, Calif.). Neurohistologic analyses are performed using ANOVA. All comparisons were considered significant at level of P<0.05.
In general terms: A western blot detects proteins with antibodies after separation by electrophoresis.

In experiment [2] the target is T1, G-CSF receptor expressed on human monocytes (Homo sapiens, UniProt Q99062).
T1 construct: Both cell lines are known to express the G-CSF-R; host or cells: THP-1 (human monocytic cell line), intact cells
T1 sequence (Q99062 25-836): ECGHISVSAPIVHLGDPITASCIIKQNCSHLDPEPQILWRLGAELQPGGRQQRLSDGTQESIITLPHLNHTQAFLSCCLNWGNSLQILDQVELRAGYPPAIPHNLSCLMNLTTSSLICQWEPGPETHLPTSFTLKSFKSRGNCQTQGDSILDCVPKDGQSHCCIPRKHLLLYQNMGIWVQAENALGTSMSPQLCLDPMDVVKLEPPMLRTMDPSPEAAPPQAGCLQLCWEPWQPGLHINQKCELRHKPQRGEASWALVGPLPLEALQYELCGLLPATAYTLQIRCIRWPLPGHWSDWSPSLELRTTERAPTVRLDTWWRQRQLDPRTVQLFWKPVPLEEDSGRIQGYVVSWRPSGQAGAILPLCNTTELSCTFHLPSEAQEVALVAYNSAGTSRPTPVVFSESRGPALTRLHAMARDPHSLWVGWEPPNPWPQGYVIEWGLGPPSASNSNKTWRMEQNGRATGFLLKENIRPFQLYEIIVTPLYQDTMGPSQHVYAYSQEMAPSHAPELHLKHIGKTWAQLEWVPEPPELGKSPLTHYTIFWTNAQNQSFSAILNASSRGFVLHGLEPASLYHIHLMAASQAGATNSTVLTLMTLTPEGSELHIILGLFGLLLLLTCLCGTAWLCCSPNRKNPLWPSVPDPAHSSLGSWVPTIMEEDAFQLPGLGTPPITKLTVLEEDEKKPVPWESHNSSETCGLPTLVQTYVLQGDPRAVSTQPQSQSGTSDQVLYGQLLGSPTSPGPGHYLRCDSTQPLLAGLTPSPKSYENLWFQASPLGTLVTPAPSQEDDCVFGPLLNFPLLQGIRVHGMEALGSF
The experiment is described as follows: Competition/displacement of [125I]-G-CSF from its receptor on monocytes. It counts as binding. The note with it: monocytic cells. As to the method: Cells, prepared as described above, were incubated in 180 μL of binding medium containing 0.2% BSA, 5 mM MgSO4 and 50 mM Hepes, pH 7.2 at a concentration of 1.5×10^7 cells/mL and the appropriate concentration of [^125I]-G-CSF. This was followed by addition of increasing concentrations of each study compound (10 to 3000 nM). After 2 hrs of incubation, the amount of bound and free [^125I]-G-CSF was determined, as described above. […] Each concentration was analyzed in triplicate and experiments were repeated three times. These experiments were conducted in human monocytic and neuronal cell lines.
Displacement studies were then conducted for each of the 10 compounds. […] Compounds 6 and 10, which displaced greater than 75% of the ^125I-G-CSF, were further studied for their capacity to mimic or block the intracellular signaling triggered by the natural ligand.

Experiment [3] has as its system PKCδVIII and Bcl2 expressed in SH-SY5Y neuronal cells. The experiment is described as follows: Western blot of PKCδVIII and Bcl2 in SH-SY5Y neuronal cells. It counts as cell-based, human. Conditions: for effect on G-CSF-induced Bcl2 expression / effect on G-CSF-induced PKCδVIII expression / Bcl2 protein expression / PKCδVIII protein expression: SH-SY5Y, 24 h; for effect on G-CSF-induced Bcl2 expression / effect on G-CSF-induced PKCδVIII expression: co-incubation with G-CSF 100 ng/mL; for Bcl2 protein expression / PKCδVIII protein expression: compound alone, three concentrations; for agonist/antagonist profile at the G-CSF receptor: neuronal cell line (SH-SY5Y). Here is the method: as §1, with “THP-1 cells or SH-SY5Y cells 3×10^6 cells in 5 mL media in a 25 cm^2 flask were treated with 100 ng/mL G-CSF or three different concentrations of the test drug for 24 h. In addition,” for “In addition,”
as §2

Experiment [4] addresses T2, G-CSF receptor on neuronal (SH-SY5Y) cells (Homo sapiens, UniProt Q99062).
T2 construct: Both cell lines are known to express the G-CSF-R; host or cells: SH-SY5Y (human neuroblastoma cell line, adherent cells), intact cells
T2 sequence (Q99062 25-836): T1 sequence (Q99062 25-836)
The experiment is described as follows: Saturation binding of [125I]-G-CSF to its receptor on SH-SY5Y cells. Conditions: [125I]-G-CSF specific binding. The source says: (§3) Two human cell lines were chosen for cell culture studies. One was a human monocyte cell line that is representative of the peripheral immune system, THP-1, which grows in suspension. The other cell line was a human neuroblastoma cell line (SH-SY5Y) which is a mixed cell line although only adherent cells were utilized (Xie, H. R., et al. Chin. Med. J. (Engl) 2010, 123, 1086-92). Both cell lines are known to express the G-CSF-R. Both cell lines were purchased from ATCC (Manassas, Va.). THP-1 cells were cultured in RPMI-1640 medium supplemented with 10% fetal bovine serum (FBS) plus 1% penicillin-streptomycin (ATCC, Manassas, Va.) in a humidified atmosphere of 5% CO2 at 37° C. […]
(§4) Binding of [^125I]-G-CSF was measured using previously described method (Kondo, S., et al. Eur. J. Haematol. 1991, 46, 223-30) with some modifications (Pennington, A., et al. Alzheimer's Disease and Parkinsonism 2013, 3, 121). […] Nonspecific binding of [^125I]-G-CSF was measured by incubations in the presence of a 100-fold molar excess of unlabeled G-CSF. […] Bound and free ligand activities were counted after cutting tubes in two pieces and placing the tips and tops, respectively into separate scintillation vials. […] The specific binding was determined from the amount of bound [^125I]-G-CSF blocked by competition with excess unlabeled G-CSF. […]

For experiment [5], the target named is T3, G-CSF receptor on monocytic (THP-1) cells (Homo sapiens, UniProt Q99062).
T3 construct: Both cell lines are known to express the G-CSF-R; host or cells: THP-1 (human monocytic cell line), intact cells
T3 sequence (Q99062 25-836): T1 sequence (Q99062 25-836)
The experiment is described as follows: Saturation binding of [125I]-G-CSF to its receptor on THP-1 cells. Conditions: [125I]-G-CSF specific binding.
Text: as §3, §4

Consider `COc1ccc2[nH]cc(C3NC(N)=Nc4nc5ccccc5n43)c2c1` (centres unmarked) [Compound 6, 4-(5-methoxy-1H-indol-3-yl)-3,4-dihydro-[1,3,5]-triazino-[1,2a]benzimidazol-2-amine], for which, in experiment [1], the “effect on G-CSF-induced Bcl2 expression” value is “blocked the increase in Bcl2 and PKCδVIII protein expression”; the “effect on G-CSF-induced PKCδVIII expression” value is “blocked the increase in Bcl2 and PKCδVIII protein expression”; the Bcl2 protein expression entry is reported as “increased expression of Bcl2”; the PKCδVIII protein expression result is on record as “but not PKCδVIII at all 3 concentrations”. Besides, the “agonist/antagonist profile at the G-CSF receptor” value (from here on “agonist/antagonist profile”) in experiment [1] was “mixed agonist/antagonist”. Besides, the IC50 (as a rule, the concentration at which inhibition is half-maximal) in experiment [2] is 13.7 nM. In addition, in experiment [3], the “effect on G-CSF-induced Bcl2 expression” value is reported as “did not change the expression of either Bcl2 or PKCδVIII”; the “effect on G-CSF-induced PKCδVIII expression” value is reported as “did not change the expression of either Bcl2 or PKCδVIII”; the Bcl2 protein expression entry is “significantly increased Bcl2 protein expression at the low and intermediate, but not the high concentration; also recorded: at the highest concentration increases PKCδVIII without changing Bcl2 expression”; the PKCδVIII protein expression entry was “stimulated PKCδVIII protein expression to levels equivalent to G-CSF alone; also recorded: at the highest concentration increases PKCδVIII”. Also, the “agonist/antagonist profile” value in experiment [3] is recorded as “did not act as an antagonist of G-CSF action; also recorded: appear to act as agonists at the G-CSF receptor”.
`NC1=Nc2nc3ccccc3n2C(c2c[nH]nc2-c2cccc([N+](=O)[O-])c2)N1` (centres unmarked) [Compound 10, 4-[3-(3-nitrophenyl)-1H-pyrazol-4-yl]-3,4-dihydro[1,3,5]triazino[1,2-a]-benzimidazol-2-amine]: in experiment [1], the “effect on G-CSF-induced Bcl2 expression” value is listed as “blocking the effects of G-CSF on Bcl2 expression; also recorded: at the lowest concentration antagonized the effects of G-CSF”; the “effect on G-CSF-induced PKCδVIII expression” value was “did not antagonize the effects on PKCδVIII protein expression; also recorded: at the lowest concentration antagonized the effects of G-CSF”; the Bcl2 protein expression entry is “significantly elevating expression of both Bcl2 and PKCδVIII”; the PKCδVIII protein expression entry was “significantly elevating expression of both Bcl2 and PKCδVIII”. Besides, in experiment [1], the “agonist/antagonist profile” value is “mixed agonist/antagonist”. The IC50 in experiment [2] was determined as 2.3 nM. Besides, in experiment [3], the “effect on G-CSF-induced Bcl2 expression” value is given as “did not block the actions of G-CSF”; the “effect on G-CSF-induced PKCδVIII expression” value is listed as “did not block the actions of G-CSF”; the Bcl2 protein expression entry is “increased expression of both PKCδVIII and Bcl2 protein to levels equivalent to G-CSF alone”; the PKCδVIII protein expression result was “increased expression of both PKCδVIII and Bcl2 protein to levels equivalent to G-CSF alone”. In experiment [3], the “agonist/antagonist profile” value is reported as “appear to act as agonists at the G-CSF receptor; also recorded: appeared to function as a G-CSF agonist”.

B1: [^125I]-G-CSF: radio-labeled G-CSF (specific activity 46.55 TBq/mmol) purchased from Perkin Elmer (protein)
chain: TPLGPASSLPQSFLLKCLEQVRKIQGDGAALQEKLVSECATYKLCHPEELVLLGHSLGIPWAPLSSCPSQALQLAGCLSQLHSGLFLYQGLLQALEGISPELGPTLDTLQLDVADFATTIWQQMEELGMAPALQPTQGAMPAFASAFQRRAGGVLVASHLQSFLEVSYRVLRHLAQP
modifications: 125I radiolabel (specific activity 46.55 TBq/mmol); labelled residue not stated
For B1, in experiment [4], the Bmax was found to be 4826 pM; the “Hill Coefficient” value is 2.7 and 2.71. Also, in experiment [5], the Bmax stood at 901 pM and the “Hill Coefficient” value came to 1.19.
